The structures appear in SMILES notation. A value given as a limit tells only on which side of the number the result lay.

The text below walks through data of patent publication US20260356840A1, “[1,2,4]TRIAZOLO[1,5-A]PYRIMIDINONE WRN INHIBITORS” (Nimbus Wadjet, Inc., priority 2023, published 2026).

The target of this assay is T1, human Werner helicase (Uniprot Q14191, amino acids 517-1235 with L1074F point mutation), WRN-BV08 (Homo sapiens, UniProt Q14191, L1074F).
T1 construct: Uniprot Q14191, amino acids 517-1235 with L1074F point mutation; TEV cleavable 8xHis tag (C, cleaved yes); made in house; host or cells: Sf9 insect cells (baculovirus, pFastBac)
T1 sequence (Q14191 517-1235 L1074F): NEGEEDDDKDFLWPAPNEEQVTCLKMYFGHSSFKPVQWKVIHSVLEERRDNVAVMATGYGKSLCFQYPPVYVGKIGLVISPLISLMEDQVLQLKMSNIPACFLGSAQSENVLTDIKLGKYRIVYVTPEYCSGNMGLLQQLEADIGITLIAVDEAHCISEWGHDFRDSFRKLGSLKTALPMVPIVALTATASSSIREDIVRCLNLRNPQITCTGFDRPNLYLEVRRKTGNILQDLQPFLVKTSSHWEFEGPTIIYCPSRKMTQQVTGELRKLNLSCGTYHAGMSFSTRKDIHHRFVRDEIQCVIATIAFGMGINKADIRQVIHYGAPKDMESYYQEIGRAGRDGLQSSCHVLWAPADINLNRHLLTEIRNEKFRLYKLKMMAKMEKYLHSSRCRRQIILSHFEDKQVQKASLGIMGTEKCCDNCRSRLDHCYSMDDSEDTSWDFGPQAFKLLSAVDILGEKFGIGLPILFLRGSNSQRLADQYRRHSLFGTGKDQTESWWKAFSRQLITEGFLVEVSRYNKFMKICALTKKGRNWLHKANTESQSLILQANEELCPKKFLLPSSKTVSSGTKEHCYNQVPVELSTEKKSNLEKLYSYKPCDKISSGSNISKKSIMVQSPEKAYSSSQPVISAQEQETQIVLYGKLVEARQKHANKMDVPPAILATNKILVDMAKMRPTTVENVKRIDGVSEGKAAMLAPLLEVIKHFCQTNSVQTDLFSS
The experiment in a line: WRN (BV08) ADP-Glo Assay. Format: biochemical. The method, then:
DNA duplex was synthesized at BGI (Shenzhen, China) and was composed of strand 1 with the sequence 5′-[…]-3′ (SEQ ID NO.: 1) and strand 2 with the sequence 5′-[…]-3′ (SEQ ID NO.: 2). DNA strands were annealed by heating to 95 °C for 5 minutes followed by slow cooling to room temperature. […] DMSO (0.1 μl) was added to columns 12, rows A-H and column 24, rows I-P for the maximum signal control.
Where RLU=relative luminescence units, sample=signal in sample well, and MIN and MAX are the respective minimum and maximum signal controls. • Four-parameter IC50 fit equation:
Y=Bottom+(Top−Bottom)/(1+(IC50/X)^Hill Slope)
Where top and bottom are normally allowed to float but may be fixed at 100 or 0 respectively in a 3-parameter fit. Y is the % inhibition and X is the compound concentration.
Molecular Biology and virus production. […] The baculovirus from the expression plasmid WRN-BV08 was generated from transfection and amplification following the manufacturer's instructions.
Sf9 cells grown in SF900II media were infected with 1:200 WRN-BV08 P2 virus and incubated for protein expression for 72 h at 27 °C. The WRN protein was purified using the following protocol. The cell pellets were thawed and resuspended in buffer A (50 mM Tris, pH 7.5, 500 mM NaCl, 1 mM TCEP, 10% Glycerol) supplemented with 0.5% CHAPS, 1 mM [COMPOUND LEFT OUT], 1 μg/ml Leupeptin, 1 μg/ml Pepstatin, and the Pierce Universal Nuclease and cocktail tablet. Cleared lysates were loaded onto a Ni Sepharose™ excel column and washed with buffer A and bound protein was eluted with buffer A supplemented with 300 mM imidazole. The eluted protein was dialyzed against buffer A and digested by His-tagged TEV (1:5 ratio) overnight at 4 °C. […] Untagged WRN protein was eluted from the column with buffer A supplemented with 20 mM imidazole, dialyzed overnight into buffer B (50 mM Tris, pH 7.5, 1 mM TCEP, 10% Glycerol) supplemented with 150 mM NaCl and loaded onto a Heparin column. Proteins were eluted with a step gradient of buffer B supplemented with 150 mM, 200 mM, 300 mM and 500 mM NaCl.
A general note: ADP-Glo turns the ADP formed in a reaction into a luminescent signal.
As for `CCc1c(N2CCN(C(=O)c3c(O)cccc3F)CC2)c(=O)n2nc(C3=CCOCC3)nc2n1CC(=O)Nc1ccc(C(F)(F)F)cc1Cl` [Compound I-1, N-[2-chloro-4-(trifluoromethyl)phenyl]-2-[2-(3,6-dihydro-2H-pyran-4-yl)-5-ethyl-6-[4-(2-fluoro-6-hydroxybenzoyl)piperazin-1-yl]-7-oxo-4H,7H-[1,2,4]triazolo[1,5-a]pyrimidin-4-yl]acetamide], the IC50 lay in the range of 5 to 50 nM. The same measure for `CCc1c(N2CCN(C(=O)c3cnc(C)cc3O)CC2)c(=O)n2nc(C3=CCOCC3)nc2n1CC(=O)Nc1ccc(C(F)(F)F)cc1Cl` [Compound I-2, N-[2-chloro-4-(trifluoromethyl)phenyl]-2-[2-(3,6-dihydro-2H-pyran-4-yl)-5-ethyl-6-[4-(4-hydroxy-6-methylpyridine-3-carbonyl)piperazin-1-yl]-7-oxo-4H,7H-[1,2,4]triazolo[1,5-a]pyrimidin-4-yl]acetamide]: 5 to 50 nM. The molecule `CCc1c(N2CCN(C(=O)c3cccc(C)c3O)CC2)c(=O)n2nc(C3=CCOCC3)nc2n1CC(=O)Nc1ccc(C(F)(F)F)cc1Cl` [Compound I-3, N-[2-chloro-4-(trifluoromethyl)phenyl]-2-[2-(3,6-dihydro-2H-pyran-4-yl)-5-ethyl-6-[4-(2-hydroxy-3-methylbenzoyl)piperazin-1-yl]-7-oxo-4H,7H-[1,2,4]triazolo[1,5-a]pyrimidin-4-yl]acetamide] came in with an IC50 of 5 to 50 nM. For the molecule `CCc1c(N2CCN(C(=O)c3c(O)cccc3OC)CC2)c(=O)n2nc(C3=CCOCC3)nc2n1CC(=O)Nc1ccc(C(F)(F)F)cc1Cl` [Compound I-4, N-[2-chloro-4-(trifluoromethyl)phenyl]-2-[2-(3,6-dihydro-2H-pyran-4-yl)-5-ethyl-6-[4-(2-hydroxy-6-methoxybenzoyl)piperazin-1-yl]-7-oxo-4H,7H-[1,2,4]triazolo[1,5-a]pyrimidin-4-yl]acetamide], the IC50 fell in the range of 5 to 50 nM. `CCc1c(N2CCN(C(=O)c3ccnc(C)c3O)CC2)c(=O)n2nc(C3=CCOCC3)nc2n1CC(=O)Nc1ccc(C(F)(F)F)cc1Cl` [Compound I-5, N-[2-chloro-4-(trifluoromethyl)phenyl]-2-[2-(3,6-dihydro-2H-pyran-4-yl)-5-ethyl-6-[4-(3-hydroxy-2-methylpyridine-4-carbonyl)piperazin-1-yl]-7-oxo-4H,7H-[1,2,4]triazolo[1,5-a]pyrimidin-4-yl]acetamide] came in with an IC50 of 5 to 50 nM.

Molecule `CCc1c(N2CCN(C(=O)c3sccc3O)CC2)c(=O)n2nc(C3=CCOCC3)nc2n1CC(=O)Nc1ccc(C(F)(F)F)cc1Cl` [Compound I-6, N-[2-chloro-4-(trifluoromethyl)phenyl]-2-[2-(3,6-dihydro-2H-pyran-4-yl)-5-ethyl-6-[4-(3-hydroxythiophene-2-carbonyl)piperazin-1-yl]-7-oxo-4H,7H-[1,2,4]triazolo[1,5-a]pyrimidin-4-yl]acetamide] gave an IC50 of 5 to 50 nM. In turn, `CCc1c(N2CCN(C(=O)c3sc(C(F)(F)F)cc3O)CC2)c(=O)n2nc(C3=CCOCC3)nc2n1CC(=O)Nc1ccc(C(F)(F)F)cc1Cl` [Compound I-7, N-[2-chloro-4-(trifluoromethyl)phenyl]-2-[2-(3,6-dihydro-2H-pyran-4-yl)-5-ethyl-6-{4-[3-hydroxy-5-(trifluoromethyl)thiophene-2-carbonyl]piperazin-1-yl}-7-oxo-4H,7H-[1,2,4]triazolo[1,5-a]pyrimidin-4-yl]acetamide] displayed an IC50 of 5 to 50 nM.

Molecule `CCc1c(N2CC3CN(C(=O)c4ncnc(C)c4O)CC3C2)c(=O)n2nc(C3=CCOCC3)nc2n1CC(=O)Nc1ccc(C(F)(F)F)cc1Cl` (centres unmarked) [Compound I-8, N-[2-chloro-4-(trifluoromethyl)phenyl]-2-[2-(3,6-dihydro-2H-pyran-4-yl)-5-ethyl-6-[5-(5-hydroxy-6-methylpyrimidine-4-carbonyl)-octahydropyrrolo[3,4-c]pyrrol-2-yl]-7-oxo-4H,7H-[1,2,4]triazolo[1,5-a]pyrimidin-4-yl]acetamide] gave an IC50 of 5 to 50 nM. The same measure for `CCc1c(N2CCN(C(=O)c3c(O)cncc3F)CC2)c(=O)n2nc(C3=CCOCC3)nc2n1CC(=O)Nc1ccc(C(F)(F)F)cc1Cl` [Compound I-9, N-[2-chloro-4-(trifluoromethyl)phenyl]-2-[2-(3,6-dihydro-2H-pyran-4-yl)-5-ethyl-6-[4-(3-fluoro-5-hydroxypyridine-4-carbonyl)piperazin-1-yl]-7-oxo-4H,7H-[1,2,4]triazolo[1,5-a]pyrimidin-4-yl]acetamide]: 5 to 50 nM; for `CCc1c(N2CCN(C(=O)c3c(F)cccc3F)CC2)c(=O)n2nc(C3=CCOCC3)nc2n1CC(=O)Nc1ccc(C(F)(F)F)cc1Cl` [Compound I-10, N-[2-chloro-4-(trifluoromethyl)phenyl]-2-{6-[4-(2,6-difluorobenzoyl)piperazin-1-yl]-2-(3,6-dihydro-2H-pyran-4-yl)-5-ethyl-7-oxo-4H,7H-[1,2,4]triazolo[1,5-a]pyrimidin-4-yl}acetamide]: 5 to 50 nM; for `CCc1c(N2CCN(C(=O)c3cn(C)[nH]c3=O)CC2)c(=O)n2nc(C3=CCOCC3)nc2n1CC(=O)Nc1ccc(C(F)(F)F)cc1Cl` [Compound I-11, N-[2-chloro-4-(trifluoromethyl)phenyl]-2-[2-(3,6-dihydro-2H-pyran-4-yl)-5-ethyl-6-[4-(3-hydroxy-1-methyl-1H-pyrazole-4-carbonyl)piperazin-1-yl]-7-oxo-4H,7H-[1,2,4]triazolo[1,5-a]pyrimidin-4-yl]acetamide]: under 5 nM. On to `CCc1c(N2CCN(C(=O)c3nn(C)cc3O)CC2)c(=O)n2nc(C3=CCOCC3)nc2n1CC(=O)Nc1ccc(C(F)(F)F)cc1Cl` [Compound I-12, N-[2-chloro-4-(trifluoromethyl)phenyl]-2-[2-(3,6-dihydro-2H-pyran-4-yl)-5-ethyl-6-[4-(4-hydroxy-1-methyl-1H-pyrazole-3-carbonyl)piperazin-1-yl]-7-oxo-4H,7H-[1,2,4]triazolo[1,5-a]pyrimidin-4-yl]acetamide], for which the IC50 was in the range of 5 to 50 nM.

The molecule `CCc1c(N2CCN(C(=O)c3c(C)cnc(C)c3O)CC2)c(=O)n2nc(C3=CCOCC3)nc2n1CC(=O)Nc1ccc(C(F)(F)F)cc1Cl` [Compound I-13, N-[2-chloro-4-(trifluoromethyl)phenyl]-2-[2-(3,6-dihydro-2H-pyran-4-yl)-5-ethyl-6-[4-(3-hydroxy-2,5-dimethylpyridine-4-carbonyl)piperazin-1-yl]-7-oxo-4H,7H-[1,2,4]triazolo[1,5-a]pyrimidin-4-yl]acetamide] had a half-inhibitory concentration (IC50) of 5 to 50 nM. In turn, `CCc1c(N2CCN(C(=O)c3cccc4cn[nH]c34)CC2)c(=O)n2nc(C3=CCOCC3)nc2n1CC(=O)Nc1ccc(C(F)(F)F)cc1Cl` [Compound I-14, N-[2-chloro-4-(trifluoromethyl)phenyl]-2-[2-(3,6-dihydro-2H-pyran-4-yl)-5-ethyl-6-[4-(1H-indazole-7-carbonyl)piperazin-1-yl]-7-oxo-4H,7H-[1,2,4]triazolo[1,5-a]pyrimidin-4-yl]acetamide] returned an IC50 of under 5 nM. The same measure for `CCc1c(N2CCN(C(C)=O)CC2)c(=O)n2nc(C3=CCOCC3)nc2n1CC(=O)Nc1ccc(C(F)(F)F)cc1Cl` [Compound I-16, 2-[6-(4-acetylpiperazin-1-yl)-2-(3,6-dihydro-2H-pyran-4-yl)-5-ethyl-7-oxo-4H,7H-[1,2,4]triazolo[1,5-a]pyrimidin-4-yl]-N-[2-chloro-4-(trifluoromethyl)phenyl]acetamide]: 5 to 50 nM; for `CCc1c(N2CCN(C(=O)c3nnn[nH]3)CC2)c(=O)n2nc(C3=CCOCC3)nc2n1CC(=O)Nc1ccc(C(F)(F)F)cc1Cl` [Compound I-17, N-[2-chloro-4-(trifluoromethyl)phenyl]-2-[2-(3,6-dihydro-2H-pyran-4-yl)-5-ethyl-7-oxo-6-[4-(1H-1,2,3,4-tetrazole-5-carbonyl)piperazin-1-yl]-4H,7H-[1,2,4]triazolo[1,5-a]pyrimidin-4-yl]acetamide]: 5 to 50 nM; for `CCc1c(N2CCN(C(=O)C(C)(C)O)CC2)c(=O)n2nc(C3=CCOCC3)nc2n1CC(=O)Nc1ccc(C(F)(F)F)cc1Cl` [Compound I-18, N-[2-chloro-4-(trifluoromethyl)phenyl]-2-[2-(3,6-dihydro-2H-pyran-4-yl)-5-ethyl-6-[4-(2-hydroxy-2-methylpropanoyl)piperazin-1-yl]-7-oxo-4H,7H-[1,2,4]triazolo[1,5-a]pyrimidin-4-yl]acetamide]: 50 to 100 nM.

Broadly, the IC50 is the concentration needed to halve the response being measured. Lower therefore signals greater potency.
